Five molecules from patent publication US10093621B2, “4-oxo-N-(4-hydroxyphenyl)retinamide derivatives as therapeutic agents for the treatment of cancer” (FONDAZIONE IRCCS ISTITUTO NAZIONALE DEI TUMORI, priority 2014, dated 2018) can be followed below.

The test system of one data set is A2780. As to the kind of experiment: Antiproliferative activity, sulphorhodamine B assay, 72 hours of treatment. It counts as cell-based. Particulars: A2780 (ovary). The protocol: (§1) The antiproliferative activity of the various compounds 1a-c (in both monotherapy and combined treatment) on the different tumour cell lines was evaluated by sulphorhodamine B assay after 72 hours of treatment, and the dose able to inhibit 50% of growth (IC50) was calculated for the monotherapy (the results are summarized in Table 1 and Table 3), while the Kern Index (KI) was determined as the synergism/antagonism […] index for the combined treatment (the results are depicted in FIG. 2).

The next data set relates to T47-D. The description is as above. Particulars: T47-D (breast). It counts as cell-based. As for the experimental part:
as §1

A further data set concerns IGROV-1. Described as above. Type of data set: cell-based, human. The conditions noted are these: IGROV-1 (ovary). The protocol:
as §1

In another data set the test system is MDA-MB-231. The description is as above. Type of data set: cell-based, human. Particulars: MDA-MB-231 (breast). The protocol: as §1
In a further data set the test system is SK-N-BE. The data set is described as above. Type of data set: cell-based. The conditions noted are these: SK-N-BE (neuroblastoma). The protocol:
as §1

A further data set concerns JVM-2. The description is as above. Particulars: JVM-2 (lymphoma). It counts as cell-based. The protocol: as §1
A further data set concerns Sk-N-5Y. The description is as above. Particulars: Sk-N-5Y (neuroblastoma). It counts as cell-based. The protocol: as §1
In a further data set the test system is BT-474. The description is as above. It counts as cell-based. Particulars: BT-474 (breast). The protocol: as §1
The subject of another data set is SKOV-3. Described as above. Particulars: SKOV-3 (ovary). It counts as cell-based. As for the experimental part: as §1
The next data set concerns MESO. The description is as above. Type of data set: cell-based. The conditions noted are these: MESO (mesothelioma). The protocol:
as §1

The test system of another data set is SK-N-SH. The data set is described as above. Type of data set: cell-based. Particulars: SK-N-SH (neuroblastoma). As for the experimental part: as §1
For another data set, the system named is ROS. Kind of data set: ROS generation, CM-H2DCFDA probe, FACS. Type of data set: cell-based. The conditions noted are these: 5 hours of treatment. The protocol:
(§2) As regards to the evaluation of the mechanism of action, ROS generation was determined after 5 hours of treatment with the use of the 5-(and -6)-chloromethyl-2′, 7′-dichlorodihydrofluorescein diacetate (CM-H2DCFDA) probe, while the cell cycle was evaluated by staining with propidium iodide. Cytofluorimetric analysis (FACS) was conducted in both cases.

Data set [1] relates to ovarian cancer (IGROV-1) cells. It counts as in vivo. As for the experimental part: For the ovarian model, nude mice were inoculated i.p. with IGROV-1 cells, and treatment with the salt 1a began one day after tumor cell inoculation (doses: 30, 60 and 90 mg/kg i.p.; 5 days/week for 4 weeks). The control mice were treated with the same solvent as used to dissolve the salt. The animals were examined twice a week to check their weight and any signs of toxicity. The survival time of the various groups (control and treated) was evaluated, and the differences were statistically analysed.

The next data set has as its system cell cycle. As to the kind of experiment: Cell cycle, propidium iodide staining, FACS. Type of data set: cell-based. The protocol:
as §2

The nature of data set [2]: In vivo plasma levels by HPLC after i.p. administration. Further details: species or system nude mice. The conditions noted are these: for Plasma level: 5 hours after last administration, 5% DMSO, H2O. The protocol: To evaluate the plasma levels of salt 1a, 4-oxo-4-HPR (120 mg/kg) and salt 1a (sodium 4-aminoxyacetate-4-HPR) (60 and 100 mg/kg) were administered i.p. to nude mice for 4 consecutive days (once a day), and the plasma levels were evaluated by HPLC 5 hours after the last administration (the results are summarized in Table 2).

For data set [3], the system named is tumour cell lines of different histotypes. Kind of data set: Antiproliferative activity of combined treatment, sulphorhodamine B assay, Kern Index. Particulars: 72 hours, preliminary. Type of data set: cell-based. The protocol: as §1
Data set [4] concerns human breast cancer cells (MDA-MB-231). Kind of data set: In vivo antitumor activity, breast cancer model (mammary fat pad). Particulars: 90 mg/kg. The protocol:
As regards the breast cancer model, human breast cancer cells (MDA-MB-231) were inoculated into the mammary fat pad of NOD/SCID-gamma mice, and treatment with the salt 1a began one week after tumor cell inoculation (dose: 90 mg/kg; 4 days/week for 5 weeks). The animals were examined twice a week to check their weight and any signs of toxicity. Tumour growth in the various groups (control and treated) was evaluated, and the differences were statistically analysed.

The subject of data set [5] is human mesothelioma (STO) cells. Kind of data set: In vivo antitumor activity, mesothelioma xenograft (s.c.). Particulars: 30 and 60 mg/kg i.p., 5 days/week for 4 weeks. Further details: species or system mice. As for the experimental part:
As regards to mesothelioma, the mice were inoculated s.c. with STO cells, and treatment with the salt 1a began one day after tumor cell inoculation (doses: 30 and 60 mg/kg i.p.; 5 days/week for 4 weeks). The control mice were treated with the same solvent as used to dissolve the salt. The animals were examined twice a week to check their weight and any signs of toxicity. Tumour growth in the various groups (control and treated) was evaluated, and the differences were statistically analysed (the results are shown in FIG. 3a).

The next data set deals with STO. Kind of data set: Antiproliferative activity, sulphorhodamine B assay, 72 hours of treatment. Type of data set: cell-based, human. Particulars: STO (mesothelioma). The protocol:
as §1

The subject of data set [6] is ovarian cancer cells (A2780). As to the kind of experiment: Cell cycle and apoptosis in ovarian cancer cells. It counts as cell-based.

Take `CCCCC(ON=C1CCC(C)(C)C(/C=C/C(C)=C/C=C/C(C)=C/C(=O)Nc2ccc(O)cc2)=C1C)C(=O)O` (centres unmarked) [LOM1133]: the IC50 in the data set with A2780 is 2.37 µM; with T47-D, 3 µM; with IGROV-1, 2.19 µM; in the data set on MDA-MB-231, 2.95 µM.
In the case of `CC1=C(/C=C/C(C)=C/C=C/C(C)=C/C(=O)Nc2ccc(O)cc2)C(C)(C)CCC1=NOCC(=O)[O-].[Na+]` [Salt 1a], the IC50 in the data set with SK-N-BE was 1.55 µM; with JVM-2, 1.11 µM; in the data set with A2780, 2.78 µM; with T47-D, 3.95 µM; in the data set on Sk-N-5Y it was 1.3 µM; in the data set with BT-474, 3.69 µM. Moreover, the IC50 in the data set on SKOV-3 is 5.96 µM; in the data set on MESO, 1.28 µM; in the data set on SK-N-SH, 1.9 µM; in the data set on STO, 1.48 µM; in the data set with IGROV-1 it was 3.82 µM; in the data set with MDA-MB-231, 3.97 µM. In addition, the “ROS generation (pro-apoptotic activity)” value with ROS is given as “the generation of ROS”. The “Survival of the mice” value in data set [1] (IGROV-1 i.p., doses of 60 and 90 mg/kg i.p., 5 days/week for 4 weeks, p<0.01) was “significantly increased the survival”. Moreover, the Signs of toxicity entry is listed as “without any evident signs of severe toxicity” in data set [1] (IGROV-1 model, 60 and 90 mg/kg); “without evident signs of severe toxicity” in data set [4] (MDA-MB-231 model). In addition, the “Cell cycle arrest during the mitotic phase (antitubulin activity)” value in the data set with cell cycle is recorded as “the cell cycle arrest during the mitotic phase”. Moreover, the Plasma level in [2] (60 mg/Kg i.p. once a day for 4 days) was 60.3 μM ± 2.52; in data set [2] (100 mg/Kg i.p. once a day for 4 days) it was 63.7 μM ± 2.08. For the same molecule, the “Toxicity for the animals” value in data set [2] (daily doses of 60 and 100 mg/kg) is “does not possess high toxicity”. In data set [2] (from in vivo experiments in murine models), the “Solubility compared with the parent compound” value is listed as “far more soluble than the parent compound”. Also, the “Plasma levels, times higher than 4-oxo-4-HPR” value in [2] (murine models, versus 4-oxo-4-HPR) was “up to 60 times”. In addition, the “Activity of combined treatment (Kern Index)” value in [3] (combined with 4-HPR), in data set [3] (combined with cisplatin) and in data set [3] (combined with paclitaxel) was “synergic activity” each time. Also, the Tumour growth entry in [4] (MDA-MB-231, 4 days/week for 5 weeks, p=0.01) is recorded as “reduced tumour growth”; in data set [5] it was “activity trend of the compound, although it did not reach statistical significance”.
As to `CC1=C(/C=C/C(C)=C/C=C/C(C)=C/C(=O)Nc2ccc(O)cc2)C(C)(C)CCC1=O` [Compound 4-oxo-4-HPR, 4-oxo-N-(4-hydroxyphenyl)retinamide], in data set [2] (i.p. once a day for 4 days, 5% cremophor), the Plasma level was 0.8 μM ± 0.4. The “Accumulation of the compound in proximity to the inoculation site” value in data set [2] (treated mice, i.p.) is given as “observed”.
For `CC1=C(/C=C/C(C)=C/C=C/C(C)=C/C(=O)Nc2ccc(O)cc2)C(C)(C)CCC1=NOCCCC(=O)O` [LOM1098], the IC50 in the data set with A2780 stood at 3.59 µM; with T47-D, 4.2 µM; in the data set with IGROV-1 it was 3.54 µM; in the data set with MDA-MB-231, 4.26 µM.
Take `CC(C=CC1=C(C)C(=NOCCN)CCC1(C)C)=CC=CC(C)=CC(=O)Nc1ccc(O)cc1` [Compound 1d, 9-[3-(2-Amino-ethoxyimino)-2,6,6-trimethyl-cyclohex-1-enyl]-3,7-dimethylnona-2,4,6,8-tetraenoic acid (4-hydroxy-phenyl)amide]: the melting point was found to be 134 °C. Moreover, the IC50 in the data set on A2780 (Homo sapiens) worked out at 0.955 µM. For the same molecule, in [6], the “Apoptotic activity (sub-G1 peak)” value is reported as “apoptotic (sub-G1 peak)” and the Cell cycle arrest entry is on record as “induced a cycle arrest in G2-M”.
